Test results as given in ChEMBL document CHEMBL1125772, “Synthesis and receptor binding of enantiomeric N-substituted cis-N-[2-(3,4-dichlorophenyl)ethyl]-2-(1-pyrrolidinyl)cyclohexylamines as high-affinity sigma receptor ligands” (J Med Chem, 1991).

Target: Kappa-type opioid receptor (Cavia porcellus, UniProt P41144)
Test: Compound was tested for the inhibitory concentration against opioid receptor kappa by using [3H]bremazocine as radioligand in guinea pig brain; No inhibition; call rule not given here

Sequence of Kappa-type opioid receptor (P41144 whole entry): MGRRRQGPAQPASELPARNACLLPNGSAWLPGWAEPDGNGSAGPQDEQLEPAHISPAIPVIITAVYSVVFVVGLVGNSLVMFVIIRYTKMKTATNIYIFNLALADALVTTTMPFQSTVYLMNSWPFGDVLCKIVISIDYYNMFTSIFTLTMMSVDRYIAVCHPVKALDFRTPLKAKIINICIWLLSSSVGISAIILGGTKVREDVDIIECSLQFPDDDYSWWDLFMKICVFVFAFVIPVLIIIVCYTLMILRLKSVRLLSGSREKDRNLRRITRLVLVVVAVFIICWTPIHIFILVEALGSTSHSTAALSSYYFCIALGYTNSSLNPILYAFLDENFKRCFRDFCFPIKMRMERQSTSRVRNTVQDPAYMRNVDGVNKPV

- Ki: Not Active
SMILES: Clc1ccc(CCN[C@@H]2CCCC[C@@H]2N2CCCC2)cc1Cl
